# In patent US8153818B2, “Triazolyl phenyl benzenesulfonamides” (ChemoCentryx, Inc., priority 2006, dated 2012):
# Molecular target: T1, CCR2 (Homo sapiens, UniProt P41597)
# T1 construct: CCR2 expressing THP-1 cells were centrifuged and resuspended in assay buffer; host or cells: THP-1
# T1 sequence (P41597 1-360 isoform P41597-2): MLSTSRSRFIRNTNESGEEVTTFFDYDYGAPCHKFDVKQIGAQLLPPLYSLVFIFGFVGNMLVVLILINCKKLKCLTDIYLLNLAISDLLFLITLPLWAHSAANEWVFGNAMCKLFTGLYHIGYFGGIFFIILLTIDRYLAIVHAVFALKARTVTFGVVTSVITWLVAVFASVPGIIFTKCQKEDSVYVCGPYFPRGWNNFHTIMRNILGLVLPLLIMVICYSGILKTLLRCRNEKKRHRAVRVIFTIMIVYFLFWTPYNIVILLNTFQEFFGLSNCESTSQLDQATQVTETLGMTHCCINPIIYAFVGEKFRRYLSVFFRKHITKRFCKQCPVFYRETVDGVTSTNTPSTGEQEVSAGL
# Assay: CCR2 activity in one of the chemotaxis, binding or calcium mobilization assays
# Type: cell-based
# Details: assay not specified per compound
# Method: Conventional migration assay was used to determine the efficacy of potential receptor antagonists in blocking migration mediated through chemokines (such as CCR2 or CCR9). This assay was routinely performed using the ChemoTX® microchamber system with a 5-μm pore-sized polycarbonate membrane. To begin such an assay, chemokine expressing cells (such as THP-1 cells for CCR2 assay or MOLT-4 cells for CCR9 assay) were harvested by centrifugation of cell suspension at 1000 RPM on a GS-6R Beckman centrifuge. The cell pellet was resuspended in chemotaxis buffer (HBSS with 0.1% BSA) at 10×10^6 cells/mL for CCR2 assay (5×10^6 cells/mL for CCR9 assay). Test compounds at desired concentrations were prepared from 10 mM stock solutions by serial dilutions in chemotaxis buffer. An equal volume of cells and compounds were mixed and incubated at room temperature for 15 minutes. Afterwards, 20 μL of the mixture was transferred onto the porous membrane of a migration microchamber, with 29 μL of chemokine ligand (0.1 nM chemokine MCP-1 protein for CCR2 assay or […] chemokine TECK protein for CCR9 assay) placed at the lower chamber. Following an incubation at 37° C. (90-minute for CCR2; 150-minute for CCR9), during which cells migrated against the chemokine gradient, the assay was terminated by removing the cell drops from atop the filter. To quantify cells migrated across the membrane, 5 μL of 7×CyQUANT® solution was added to each well in the lower chamber, and the fluorescence signal measured on a Spectrafluor Plus fluorescence plate reader (TECAN, Durham, N.C.). The degree of inhibition was determined by comparing migration signals between compound-treated and untreated cells. IC50 calculation was further performed by non-linear squares regression analysis using Graphpad Prism (Graphpad Software, San Diego, Calif.).
# Calcium flux assay measures an increase in intracellular calcium following ligand-induced receptor activation. In the screen of chemokine antagonists, it was used as a secondary assay carried out on a FLIPR® machine (Molecular Devices, Mountain View, Calif.). To begin an assay, chemokine expressing cells (such as THP-1 cells for CCR2 assay or MOLT-4 cells for CCR9 assay) were harvested by centrifugation of cell suspension, and resuspended to 1.5×10^6 cells/mL in HBSS (with 1% fetal calf serum). Cells were then labeled with a calcium indicator dye Fluo-4 AM for 45 minutes at 37° C. with gentle shaking. Following incubation, cells were pelletted, washed once with HBSS and resuspended in the same buffer at a density of 1.6×10^6 cells/mL. One hundred microliters of labeled cells were mixed with 10 μL of test compound at the appropriate concentrations on an assay plate. Chemokine protein (MCP-1 at a final concentration of 0.1 nM for CCR2 assay or TECK at a final concentration of 25 nM for CCR9 assay) to activate the receptor. The degree of inhibition was determined by comparing calcium signals between compound-treated and untreated cells. IC50 calculations were further performed by non-linear squares regression analysis using Graphpad Prism (Graphpad Software, San Diego, Calif.).
# Ligand binding assay was used to determine the ability of potential CCR2 antagonists to block the interaction between CCR2 and its ligand MCP-1. CCR2 expressing THP-1 cells were centrifuged and resuspended in assay buffer (20 mM HEPES pH 7.1, 140 mM NaCl, 1 mM CaCl2, 5 mM MgCl2, and with 0.2% bovine serum albumin) to a concentration of 2.2×10^5 cells/mL. Binding assays were set up as follows. […]
row,IC50 [nM],Compound
1,< 1000,O=S(=O)(Nc1cc(Cl)ccc1-c1nncn1-c1cc[nH]n1)c1ccc(Cl)c(C(F)(F)F)c1 [Compound 157]
2,< 1000,"O=S(=O)(Nc1cc(Cl)ccc1-c1nncn1-c1ccccc1)c1ccc(Cl)c(C(F)(F)F)c1 [Compound 159, 4-chloro-N-(5-chloro-2-(4-phenyl-4H-1,2,4-triazol-3-yl)phenyl)-3-(trifluoromethyl)benzenesulfonamide]"

# The remaining lines, values behind:
row,Compound,IC50 [nM]
1,Cc1nnc(-c2ccc(Cl)cc2NS(=O)(=O)c2ccc(Cl)c(C(F)(F)F)c2)n1-c1cc[nH]n1 [Compound 158],< 1000
2,"O=S(=O)(Nc1cc(Cl)c(F)cc1-c1nncn1-c1cc[nH]n1)c1ccc(Cl)c(C(F)(F)F)c1 [Compound 160, N-(2-(4-(1H-pyrazol-3-yl)-4H-1,2,4-triazol-3-yl)-5-chloro-4-fluorophenyl)-4-chloro-3-(trifluoromethyl)benzenesulfonamide]",< 1000
3,"NC(=O)c1nnc(-c2cc(F)c(Cl)cc2NS(=O)(=O)c2ccc(Cl)c(C(F)(F)F)c2)n1-c1cc[nH]n1 [Compound 161, 5-(4-chloro-2-(4-chloro-3-(trifluoromethyl)phenylsulfonamido)-5-fluorophenyl)-4-(1H-pyrazol-3-yl)-4H-1,2,4-triazole-3-carboxamide]",< 1000
